Laboratory results reported in patent publication US9398761B2, “Transgenic animal model of mood disorders” (BRAINCO BIOPHARMA, S.L., priority 2012, dated 2016).
Entries after “also recorded” stand apart in the source; their conditions may differ.

Test system: wild-type (WT) and PTN transgenic (TG) mice
Assay: Novelty Suppressed Feeding Test after chronic fluoxetine treatment
Type: in vivo, mouse
Conditions: 4 weeks; for Latency to feed, treated versus untreated: fluoxetine in drinking water 160 mg/l, one-way ANOVA on rank-transformed data
Method: Novelty suppressed feeding test assesses anxiety and/or depression by measuring the latency of an animal to approach and eat food in a novel environment following chronic treatment with antidepressants. Mice (WT=14 and TG=14) were separated in two experimental groups: Without fluoxetine treatment and with fluoxetine treatment. The Fluoxetine was delivered ad libitum in the drinking water at a concentration of 160 mg/l (approximately doses of 20-25 mg/kg/day) during 4 weeks. Mice were weighed and food was removed from their cage. Twenty four hr after removal of food, mice were transferred to the testing room, placed in a clean holding cage and allowed to habituate for at least 30 min. The testing apparatus consisted of a clear Plexiglas open-field (50×50×25 cm) under an aversive condition (100 lux luminosity). The floor was covered with 2 cm of corncob bedding. A small piece of mouse chow was placed in the center of the arena. At the start of the experiment, each mouse was placed in the corner of the testing area, and the time to the first feeding event was recorded. After all mice from a single cage were tested, mice were returned to their home cage. A longer latency to feed reflects an anxiety-like behaviour. […] Measurement of Latency to feed were rank-transformed (Conover and Iman, 1981) and subjected to a Two-way ANOVA having two levels of genotype (wild-type or WT and transgenic or TG) and two levels of treatment (without fluoxetine or −Flx and with fluoxetine or +Flx).

With `CNCCC(Oc1ccc(C(F)(F)F)cc1)c1ccccc1` (stereo not shown) [Fluoxetine] the “Sensitivity to the effect of fluoxetine, Tg compared with Wt” value (Novelty Suppressed Feeding Test, chronic treatment) was “more sensitive”, the “Latency to feed, treated versus untreated” value (TG (PTN-overexpressing) mice) was “significant difference; also recorded: reversed” and the “Latency to feed, main effect of treatment (two-way ANOVA)” value (WT and TG mice, fluoxetine in drinking water 160 mg/l (approx. 20-25 mg/kg/day), with vs without fluoxetine) was “significant”. The “Latency to feed, treated versus untreated” value (WT mice) was “No significant differences”.
